From patent publication US5541181A, “Compound produced by a strain of micromonospora” (Bristol-Myers Squibb Company, priority 1994, dated 1996) come the findings set out here.

Values after ≈ are worked out from the molar mass of the structure shown. Like-named read-outs stand apart in the source and are kept apart here. Where only a bound is given, the exact number is not on record here.

One series can be described thus: Solubility. The series is classed as physicochemical.
The subject of the next series is P388 leukemia. The series is classed as in vivo, mouse. The settings on record: ip; for T/C: ≥ 125 significantly active; for Avg Weight change on day 4: mouse, in vivo. How it is done:
(§1) B16 melanoma was intraperitoneally (ip) inoculated with 0.5 ml of 10% brei per male BDF1 mouse, and P388 leukemia intraperitoneally inoculated with 10^6 cells per female CDF1 mouse. The test materials were intraperitoneally administered to the tumor-bearing mice by the following treatment schedules: once daily on days 1 to 3 (Q1D×3), once a day on days 1, 4, and 7 (Q3D×3) and once a day on days 1, 5 and 9 (Q4D×3).
(§2) The in vivo antitumor activity was determined in tumor-bearing mice.

Another series has as its system B16 melanoma. The series is classed as in vivo, mouse. The settings on record: ip; for MST (Median survival time) / T/C: Q4D × 3; for Avg Weight change on day 5: mouse, in vivo. How it is done:
as §1, §2

For a further series, the system named is Moser cells. The experiment in a line: In vitro cytotoxicity, Moser (human colorectal carcinoma), neutral red, 72 hours. The series is classed as cell-based. How it is done:
(§3) In Vitro Cytoxicity. B16-F10 (murine melanoma) and Moser (human colorectal carcinoma) were grown in Eagle's minimum essential medium (Nissui) supplement with fetal calf serum (FCS, 10%) and kanamycin (60 μg/ml), HCT-116 (human colon carcinoma) cells were grown in McCoy's 5A Medium (Gibco) supplemented with FCS (10%), penicillin (100 u/ml) and streptomycin (100 μg/ml), and K562 (human myelogenous leukemia) were in RPM 11640 medium supplemented with FCS (10%), penicillin (100 u/ml) and streptomycin (100 μg/ml) at 37° C. under humidified atmosphere in a CO2 incubator. The exponentially growing B16-F10, Moser, K562 and HCT-116 cells were harvested, counted and suspended in the culture media at 1.5×10^4, 6×10^4, 3×10^4 and 8×10^4 cells/ml, respectively. The test materials were planted into the wells of 96 or 24-well tissue culture plate and for 72 hours. The cytotoxic activities were colorimetrically determined at 540 nm after staining viable cells with neutral red solution.

The test system of another series is B16-F10 cells. The experiment in a line: In vitro cytotoxicity, B16-F10 (murine melanoma), neutral red, 72 hours. The series is classed as cell-based. The settings on record: for IC50: Mus musculus, B16-F10, 72 hours; for cytotoxicity: B16-F10, compared with BU-4664L. How it is done:
as §3

The test system of series [1] is K562, B16-F10 and Moser cells. As to the kind of experiment: In vitro cytotoxicity, range over K562, B16-F10 and Moser. The settings on record: vs K562, B16-F10 and Moser; read-out: IC50 (inhibited growth of tumor cell lines), range. The series is classed as cell-based, murine and human. How it is done: as §3
The next series deals with HCT-116 cells. The experiment in a line: In vitro cytotoxicity, HCT-116 (human colon carcinoma), neutral red, 72 hours. The series is classed as cell-based. Conditions: for IC50: Homo sapiens, HCT-116, 72 hours; for cytotoxicity: HCT-116, compared with BU-4664L. How it is done: as §3
A further series relates to K562 cells. As to the kind of experiment: In vitro cytotoxicity, K562 (human myelogenous leukemia), neutral red, 72 hours. The series is classed as cell-based. Conditions: K562, 72 hours. How it is done: as §3
The target of another series is T1, 5-lipoxygenase (5-LPO) (Rattus norvegicus, UniProt P12527).
T1 construct: produced in a cell-free extract of rat basophilic leukemia cells (RBL-1 cells, ATCC CRL 1378); endogenous in cells; host or cells: RBL-1 cells (rat basophilic leukemia), ATCC CRL 1378; cell-free extract
T1 sequence (P12527 1-673): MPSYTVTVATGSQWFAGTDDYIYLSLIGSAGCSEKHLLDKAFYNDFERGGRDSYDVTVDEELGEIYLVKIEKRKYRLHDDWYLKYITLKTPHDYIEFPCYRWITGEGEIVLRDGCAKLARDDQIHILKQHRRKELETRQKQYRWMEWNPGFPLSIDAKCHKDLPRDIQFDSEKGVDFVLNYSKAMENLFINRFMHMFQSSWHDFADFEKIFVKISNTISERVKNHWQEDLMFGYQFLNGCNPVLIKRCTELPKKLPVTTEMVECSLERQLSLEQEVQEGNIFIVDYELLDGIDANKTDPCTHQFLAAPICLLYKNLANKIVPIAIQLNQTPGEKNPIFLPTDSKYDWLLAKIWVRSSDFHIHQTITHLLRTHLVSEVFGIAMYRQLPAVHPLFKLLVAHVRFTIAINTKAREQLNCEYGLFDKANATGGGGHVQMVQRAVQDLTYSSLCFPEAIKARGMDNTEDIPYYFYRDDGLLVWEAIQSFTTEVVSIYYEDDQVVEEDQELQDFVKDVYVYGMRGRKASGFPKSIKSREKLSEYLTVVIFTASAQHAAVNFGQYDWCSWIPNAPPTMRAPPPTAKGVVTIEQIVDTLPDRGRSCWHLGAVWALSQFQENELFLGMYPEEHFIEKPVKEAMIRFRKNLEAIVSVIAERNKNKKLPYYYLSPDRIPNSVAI
As to the kind of experiment: 5-Lipoxygenase (5-LPO) inhibitory activity: 5-HETE produced in a cell-free extract of rat basophilic leukemia (RBL-1) cells. The series is classed as biochemical. How it is done: 20-Jar Fermentation. A 5-ml portion of the seed culture was transferred into a 500-ml Erlenmeyer flask containing 100 ml of the seed medium described above. Fermentation was carried out for 3 days at 28° C. and 200 rpm. This seed culture (500 ml) was inoculated into a 20-liter jar fermentor containing 12 liters of the production medium composed of soluble starch 2%, Pharmamedia (Trader's Protein) 1%, yeast extract 0.2%, ZnSO4 ·7H2 O 0.003% and CaCO3 0.4% (pH 7.0) and fermented for 3 days under the following conditions: temperature, 28° C.; aeration, 10 liters/minute; internal pressure, 0.5 kg/cm^2; agitation, 250 rpm. For preparation of an assay sample, a 3-ml of the whole broth was extracted with the same volume of n-butanol. After centrifugation, the solvent layer was evaporated to dryness and dissolved into the same volume of 10% dimethylsulfoxide (DMSO) solution. The solution was used as an assay sample.

Setting [2] is: Table 8, rat 5-LPO, read-out: IC50 (5-Lipoxygenase Inhibitory Activity).

The T/C is the ratio of treated to control. As usually defined, the IC50 is the concentration that inhibits the measured activity by half.

For `CC(C)=CCC/C(C)=C/CC/C(C)=C/CN1c2cc(O)cc(O)c2NC(=O)c2cccc(O)c21` [BU-4664L, 5-farnesyl-4,7,9-trihydroxy dibenzo[b,e][1,4]diazepin-11-one], the solubility result is reported as “slightly soluble” in “Solubility” (chloroform); “soluble” in the series “Solubility” (dimethyl sulfoxide); “soluble” in “Solubility” (ethanol); “soluble” in “Solubility” (ethyl acetate); “soluble” in the series “Solubility” (methanol); “insoluble” in “Solubility” (n-hexane). For the same compound, in the series “Solubility” (water), the solubility result is recorded as “insoluble”. For the same compound, the “T/C values against P388 leukemia” value in the series with P388 leukemia is reported as “good T/C values”. Besides, the “survival time of mice inoculated with P388” value in the series with P388 leukemia is reported as “significant prolongation of the survival time”. Also, the “MST (Median survival time)” value with P388 leukemia (0.3 mg/kg/day, Q1D × 3) is 12.0 days; in the series with P388 leukemia (1 mg/kg/day, Q1D × 3) it was 11.0 days; with P388 leukemia (1 mg/kg/day, Q3D × 3), 11.9 days; with P388 leukemia (3 mg/kg/day, Q1D × 3), 13.0 days; in the series with P388 leukemia (3 mg/kg/day, Q3D × 3), 15.2 days; in the series on P388 leukemia (10 mg/kg/day, Q1D × 3) it was 15.0 days. Besides, the “MST (Median survival time)” value with P388 leukemia (10 mg/kg/day, Q3D × 3) worked out at 16.2 days; in the series with P388 leukemia (30 mg/kg/day, Q1D × 3), 16.0 days; in the series with P388 leukemia (30 mg/kg/day, Q3D × 3), 12.5 days; in the series with B16 melanoma (3 mg/kg/day) it was 16.5 days; with B16 melanoma (10 mg/kg/day), 17.5 days; in the series on B16 melanoma (30 mg/kg/day), 17.0 days. Further, the T/C is given as 120% in the series with P388 leukemia (0.3 mg/kg/day, Q1D × 3); 110% with P388 leukemia (1 mg/kg/day, Q1D × 3); 119% with P388 leukemia (1 mg/kg/day, Q3D × 3); 130% in the series on P388 leukemia (3 mg/kg/day, Q1D × 3); 152% with P388 leukemia (3 mg/kg/day, Q3D × 3); 150% in the series on P388 leukemia (10 mg/kg/day, Q1D × 3). Besides, the T/C in the series with P388 leukemia (10 mg/kg/day, Q3D × 3) was determined as 162%; with P388 leukemia (30 mg/kg/day, Q1D × 3), 160%; in the series with P388 leukemia (30 mg/kg/day, Q3D × 3), 152%; in the series on B16 melanoma (3 mg/kg/day) it was 127%; in the series with B16 melanoma (10 mg/kg/day) it was 135%; with B16 melanoma (30 mg/kg/day), 131%. In addition, in the series with P388 leukemia (0.3 mg/kg/day), the “Avg Weight change on day 4” value is given as “+0.5 g”. For the same compound, in the series with B16 melanoma, the “survival time of mice inoculated with B16 melanoma” value is listed as “significant prolongation of the survival time”. For the same compound, the “activity against B16 melanoma in terms of minimum effective dose” value with B16 melanoma (compared with Mitomycin C) is recorded as “weaker than Mitomycin C”. Further, the “Avg Weight change on day 5” value is “+0.3 g” in the series with B16 melanoma (3 mg/kg/day), “+0.3 g” in the series with B16 melanoma (10 mg/kg/day) and -0.8 g with B16 melanoma (30 mg/kg/day). Further, the IC50 with Moser cells was 18 µg/mL (≈ 38.9 µM); in the series with B16-F10 cells, 1.9 µg/mL (≈ 4.11 µM); in series [1] it was 1.1 to 18 µg/mL (≈ 2.38 to 38.9 µM); in the series on HCT-116 cells it was 2.6 µg/mL (≈ 5.62 µM); with K562 cells it was 1.1 µg/mL (≈ 2.38 µM); on 5-lipoxygenase (5-LPO) (rat 5-LPO, read-out: IC50 (5-LPO inhibitory activity)), 1.7 µM. Further, at 5-lipoxygenase (5-LPO) (rat 5-LPO), the “5-LPO inhibitory activity” value is “good 5-LPO inhibitory activity”.

Consider `CO[C@@]12[C@H](COC(N)=O)C3=C(C(=O)C(C)=C(N)C3=O)N1C[C@@H]1N[C@@H]12` [Mitomycin C, reference compound], for which the “MST (Median survival time)” value was 12.5 days in the series on P388 leukemia (0.3 mg/kg/day, Q1D × 3); 16.0 days with P388 leukemia (1 mg/kg/day, Q1D × 3); 21.0 days in the series with P388 leukemia (3 mg/kg/day, Q1D × 3); 16.0 days with B16 melanoma (0.5 mg/kg/day); 22.5 days with B16 melanoma (1 mg/kg/day); 26.7 days with B16 melanoma (2 mg/kg/day). For the same compound, the T/C stood at 119% in the series with P388 leukemia (0.3 mg/kg/day, Q1D × 3); 152% with P388 leukemia (1 mg/kg/day, Q1D × 3); 200% in the series with P388 leukemia (3 mg/kg/day, Q1D × 3); 123% in the series with B16 melanoma (0.5 mg/kg/day); 173% in the series with B16 melanoma (1 mg/kg/day); 204% in the series on B16 melanoma (2 mg/kg/day). Also, the figures for the “Avg Weight change on day 4” value in the series on P388 leukemia (0.3 mg/kg/day), with P388 leukemia (1 mg/kg/day) and with P388 leukemia (3 mg/kg/day) were “+0.3 g”, 0.0 g and -1.5 g, respectively. In addition, the “Avg Weight change on day 5” value is recorded as “+0.8 g” in the series with B16 melanoma (0.5 mg/kg/day), “+0.5 g” in the series with B16 melanoma (1 mg/kg/day) and “+0.3 g” with B16 melanoma (2 mg/kg/day).

In the case of `CC(=O)Oc1cc(OC(C)=O)c2c(c1)N(C/C=C(\C)CC/C=C(\C)CCC=C(C)C)c1c(OC(C)=O)cccc1C(=O)N2` [Triacetyl BU-4664L], the “cytotoxicity” value in the series on B16-F10 cells and in the series with HCT-116 cells was “weaker cytotoxicity” throughout. The half-maximal inhibitory concentration (IC50) was 2.4 µg/mL (≈ 4.08 µM) in the series on B16-F10 cells, 4.4 µg/mL (≈ 7.47 µM) with HCT-116 cells and above 34 µM at 5-lipoxygenase (5-LPO) (setting [2]). On 5-lipoxygenase (5-LPO) (rat 5-LPO), the “5-LPO inhibitory activity” value is “seemed to be devoid of 5-LPO inhibitory activity”.

For `COc1cc(OC)c2c(c1)N(C/C=C(\C)CC/C=C(\C)CCC=C(C)C)c1c(OC)cccc1C(=O)N2` [Trimethyl BU-4664L], the “cytotoxicity” value in the series on B16-F10 cells and with HCT-116 cells was “weaker cytotoxicity” throughout. Also, the half-maximal inhibitory concentration (IC50) is 21 µg/mL (≈ 41.6 µM) in the series on B16-F10 cells, 12.5 µg/mL (≈ 24.8 µM) in the series on HCT-116 cells and above 39.6 µM at 5-lipoxygenase (5-LPO) (setting [2]). Moreover, the “5-LPO inhibitory activity” value at 5-lipoxygenase (5-LPO) (rat 5-LPO) is given as “seemed to be devoid of 5-LPO inhibitory activity”.
